Assay results published in patent US12545686B2, “Polymorphic forms of (s)-n-(3-bromo-2-fluorophenyl)-7-((4-methylpiperazin-1-yl)methyl)-7,8-dihydro-[1,4]dioxino[2,3-g]quinazolin-4-amine as EGFR inhibitors” (ERASCA, INC., priority 2021, dated 2026).

Key:
EGFR = EGFR (Homo sapiens, UniProt P00533); settings: as disclosed in WO 2020/190765; cited from earlier work
[1] = pH dependent solubility tests in 0.1 M HCl, citrate buffer and USP phosphate buffers; assay type: physicochemical; settings: in 1.0 ml of 0.1M HCl
Experimental: pH dependent solubility tests were conducted in 0.1 M HCl, in citrate buffer, and in USP phosphate buffers with nominal pH values of 6.8 and 7.4. Solubility tests at pH values below 5 failed because all compounds dissolved during the equilibration phase.

[2] = as disclosed in WO 2020/190765; cited from earlier work

Sequence of EGFR (P00533 25-1210): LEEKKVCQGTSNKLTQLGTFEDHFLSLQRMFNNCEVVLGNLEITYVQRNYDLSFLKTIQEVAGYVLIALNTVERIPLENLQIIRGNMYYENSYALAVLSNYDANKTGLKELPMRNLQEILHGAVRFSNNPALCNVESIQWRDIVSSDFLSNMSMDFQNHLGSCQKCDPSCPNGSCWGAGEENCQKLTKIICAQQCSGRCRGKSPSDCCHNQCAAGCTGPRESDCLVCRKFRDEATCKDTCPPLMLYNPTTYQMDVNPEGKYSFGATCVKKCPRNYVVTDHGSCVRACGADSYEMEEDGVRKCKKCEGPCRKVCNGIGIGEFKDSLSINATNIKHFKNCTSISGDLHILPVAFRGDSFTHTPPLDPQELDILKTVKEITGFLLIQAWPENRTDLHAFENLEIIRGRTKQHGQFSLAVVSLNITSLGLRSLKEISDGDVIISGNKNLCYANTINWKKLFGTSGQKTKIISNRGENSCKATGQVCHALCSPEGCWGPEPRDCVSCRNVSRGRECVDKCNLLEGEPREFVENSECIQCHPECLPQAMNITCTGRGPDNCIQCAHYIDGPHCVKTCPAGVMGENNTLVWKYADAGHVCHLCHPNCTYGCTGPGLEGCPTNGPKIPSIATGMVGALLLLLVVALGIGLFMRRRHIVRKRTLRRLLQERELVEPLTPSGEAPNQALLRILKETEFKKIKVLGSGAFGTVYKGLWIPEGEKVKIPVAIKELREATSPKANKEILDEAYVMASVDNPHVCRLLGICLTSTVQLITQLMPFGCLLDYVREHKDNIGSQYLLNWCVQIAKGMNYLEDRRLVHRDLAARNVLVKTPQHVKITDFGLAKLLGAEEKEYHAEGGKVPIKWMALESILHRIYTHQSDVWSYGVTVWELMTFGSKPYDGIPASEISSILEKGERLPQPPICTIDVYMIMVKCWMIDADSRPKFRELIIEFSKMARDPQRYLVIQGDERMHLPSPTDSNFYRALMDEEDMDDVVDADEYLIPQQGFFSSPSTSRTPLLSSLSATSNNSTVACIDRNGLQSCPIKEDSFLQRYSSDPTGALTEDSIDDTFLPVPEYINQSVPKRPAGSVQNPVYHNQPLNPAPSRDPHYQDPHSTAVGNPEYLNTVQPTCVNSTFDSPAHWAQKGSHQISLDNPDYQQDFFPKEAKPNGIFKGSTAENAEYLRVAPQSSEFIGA

Amount of compound that easily dissolves (approximate test) [1]: ≥ 55 mg
SMILES: CN1CCN(C[C@H]2COc3cc4ncnc(Nc5cccc(Br)c5F)c4cc3O2)CC1 [Compound (I), (S)—N-(3-bromo-2-fluorophenyl)-7-((4-methylpiperazin-1-yl)methyl)-7,8-dihydro-[1,4]dioxino[2,3-g]quinazolin-4-amine]
EGFR inhibitory activity (EGFR): good EGFR inhibitory activity
Brain penetration capability [2]: brain penetration capability
